According to patent publication US9085593B2, “Therapeutic agent for arthrosis” (SANSHO CO., LTD., priority 2011, dated 2015):
Several values for one entry are separate records, joined by “and”; a condition that tells them apart may be missing. Equal values may be shown once.

System: osteoarthritis in rabbit knee
Experiment: Pain assessment (weight distribution across both hind limbs), rabbit knee osteoarthritis model
Type: in vivo, rabbits (Kbs:NZW)
Conditions: for Weight distribution, Mean / Left hind limb / Right hind limb / Weight distribution (%) on treated limb (right hind limb): 10 μg/rabbit into joint cavity; for Weight distribution, Mean: group mean n=6; for Left hind limb / Right hind limb / Weight distribution (%) on treated limb (right hind limb): individual animals 201-206, listed as Test substance, sodium salt
Procedure: Twelve 11- to 12-week-old male rabbits (Kbs:NZW) were used. Rabbits were reared in separate cages (one rabbit per cage) at 14.4° C. to 24.9° C. under light (12 hours from 7:00 am to 7:00 pm) with continuous ventilation. Rabbits were allowed to eat 150 g of feed (CR-3, CLEA Japan, Inc.) per day and to drink tap water.
(9Z)-9-Octadecenoic acid-(2-hydroxy-2-oxide-1,2-oxaphospholan-4-yl)methyl ester sodium salt (C18:1-cPA; hereafter, referred to as “ScPA”) was used.
Hair in the vicinity of the knee joint of the right hind limb of a rabbit was shaved using electrical clippers under deep anesthesia, and the shaved area was disinfected with Isodine. The outer coat on the medial aspect of the right hind limb was incised with a surgical knife, the boundary between the medial aspect and the articular capsule of the patellofemoral ligament was further incised, and the medial patellofemoral ligament was then dissected. Thereafter, the articular capsule was spread wide open to expose the medial meniscus, which was then completely removed. Following the removal of the meniscus, tissue and epidermis in the vicinity of the articular capsule were sutured. At the time of suturing, the site of operation was washed with physiological saline (titer: 500 mg/20 ml) containing antibiotics (Viccillin, Meiji Seika Pharma Co., Ltd.).
After the model animals were prepared, they were divided into two groups each consisting of 6 individuals while averaging body […] (i.e., the vehicle administered group of Animal Numbers 101 to 106 and the test substance (ScPA) administered group of Animal Numbers 201 to 206).
The test compound and the vehicle were administered in the manner described below. • Route of administration: into the joint cavity • Site of administration: right hind limb (treated limb) • Timing of administration: on days 7, 11, 14, 18, 21, 25, 28, 32, 35, and 39 • Dosage: Test compound: 10 μg/rabbit (volume: 0.2 ml) • Vehicle: 0.2 ml/rabbit • Means of administration: with the use of a 1.0-ml syringe (Terumo Corporation) and a 27 G injection needle (Terumo Corporation) (1-5) Pain Assessment (Weight Distribution Across both Hind Limbs) Frequency of Measurement:
Measurement was carried out seven times in total: i.e., before treatment and 1, 2, 3, 4, 5, and 6 weeks after the treatment.
Body weights loaded on the right hind limb and the left hind limb were separately measured using a weight scale, and the weight distribution on the treated limb (the right hind limb) was determined using the following equation. Weight distribution (%) on treated limb (right hind limb)=[right hind limb (kg)/(right hind limb (kg)+left hind limb (kg))]×100 (1-6) Swelling Assessment (Articular Swelling of both Hind Limbs) Frequency of Measurement: […]

Structure (SMILES): CCCCCCCC/C=C\CCCCCCCC(=O)OCC1COP(=O)([O-])C1.[Na+] (centres unmarked) [ScPA, (9Z)-9-Octadecenoic acid-(2-hydroxy-2-oxide-1,2-oxaphospholan-4-yl)methyl ester sodium salt]
- Weight distribution, Mean (Day 0 (before treatment)): 49.1%
- Left hind limb (Day 0 (before treatment)): 610 g and 400 g and 550 g and 460 g and 260 g and 310 g
- Right hind limb (Day 0 (before treatment)): 660 g and 320 g and 410 g and 490 g and 270 g and 350 g
- Weight distribution (%) on treated limb (right hind limb) (Day 0 (before treatment)): 52% (2×) and 44% and 43% and 51% and 53%
- Weight distribution, Mean (Day 7): 32.1%
- Left hind limb (Day 7): 1010 g and 410 g and 900 g and 750 g (2×) and 880 g
- Right hind limb (Day 7): 660 g and 160 g and 140 g and 520 g and 430 g and 460 g
- Weight distribution (%) on treated limb (right hind limb) (Day 7): 40% and 28% and 13% and 41% and 33% and 38%
- Weight distribution, Mean (Day 14): 39.4%
- Left hind limb (Day 14): 770 g and 400 g and 640 g and 810 g and 700 g and 600 g
- Right hind limb (Day 14): 520 g and 200 g and 320 g and 630 g and 380 g and 610 g
- Weight distribution (%) on treated limb (right hind limb) (Day 14): 40% and 33% (2×) and 44% and 35% and 50%
- Weight distribution, Mean (Day 21): 43.0%
- Left hind limb (Day 21): 710 g and 440 g and 350 g and 580 g (2×) and 760 g
- Right hind limb (Day 21): 380 g and 370 g and 720 g and 250 g and 450 g and 440 g
- Weight distribution (%) on treated limb (right hind limb) (Day 21): 35% and 46% and 67% and 30% and 37% and 43%
- Weight distribution, Mean (Day 28): 47.0%
- Left hind limb (Day 28): 700 g and 290 g and 260 g and 750 g and 710 g and 800 g
- Right hind limb (Day 28): 600 g (2×) and 150 g and 390 g and 660 g and 780 g
- Weight distribution (%) on treated limb (right hind limb) (Day 28): 46% (2×) and 34% and 60% and 47% and 49%
- Weight distribution, Mean (Day 35): 39.1%
- Left hind limb (Day 35): 650 g and 800 g and 470 g and 1030 g and 570 g and 870 g
- Right hind limb (Day 35): 350 g (2×) and 380 g and 630 g and 560 g and 510 g
- Weight distribution (%) on treated limb (right hind limb) (Day 35): 35% and 30% and 45% and 38% and 50% and 37%
- Weight distribution, Mean (Day 42, p=0.0053 vs vehicle): 46.7%
- Left hind limb (Day 42): 620 g and 700 g and 380 g and 820 g and 840 g and 580 g
- Right hind limb (Day 42): 440 g and 510 g and 630 g and 660 g and 520 g and 610 g
- Weight distribution (%) on treated limb (right hind limb) (Day 42): 42% (2×) and 62% and 45% and 38% and 51%
- weight loaded on the treated limb (the right hind limb) compared with the vehicle administered group (after day 14 up to day 42): maintained at higher levels
